Measurements taken from patent US6472526B1, “Imidazole derivatives having an inhibitory activity for farnesyl transferase and process for preparation thereof” (LG Chemical Ltd., priority 1997, dated 2002).

What was measured:
Ras farnesyl transferase [1] = biological target: T1, Ras farnesyl transferase (Homo sapiens, UniProt P49354+P49356); test: In vitro inhibitory activity for Ras farnesyl transferase, H-Ras substrate; format: biochemical
T1 construct: made in house
Method: In the present experiment, Ras farnesyl transferase produced by genetic recombination techniques according to the improved Pompliano's method (Pompliano et al., Biochemistry, 1992, 31, 3800) was used, and Ras substrate (Ras-CVLS) protein described in Korean Patent Appln. No. 97-14409 was used after it has been purified according to the known method (see, Chung et al., Biochimica et Biophysica Acta, 1992, 278, 1129).
The enzyme reaction was performed in 50 μl of 50 mM Sodium HEPES buffer solution containing 25 mM of potassium chloride, 25 mM of magnesium chloride, 10 mM of DTT and 50 μM of zinc chloride. 1.5 μM of Ras substrate protein, 0.15 μM of tritium-farnesylpyrophosphate and 4.5 nM of farnesyl transferase were used.
More specifically, in the initial step, farnesyl transferase was added to the above buffer solution, reaction was maintained for 30 minutes at 37° C. and then the reaction was stopped by adding 1 ml of ethanol solution containing 1M HCl. The formed precipitates were adsorbed to GF/B filter using Hopper harvestor(Hopper #FH 225V) for filter-binding, washed with ethanol, and then radioactivity of the dried filter was measured using LKB β counter. Enzyme titer was measured in the unsaturated state of substrate where the concentrations of Ras substrate protein and farnesyl transferase have quantitative relationship. The compound according to the present invention dissolved in dimethyl sulfoxide (DMSO) was added to the reaction solution in an amount of less than 5% of the total reaction solution, and then the enzyme inhibitory activity thereof was measured. The enzyme inhibitory activity was represented by percentage of the amount of farnesyl incorporated into the Ras substrate protein in the presence of the test compound to that in the absence of the test compound. IC50 of the test compound was defined as the concentration at which 50% of the enzyme activity was inhibited.

Ras farnesyl transferase [2] = biological target: T1, Ras farnesyl transferase; test: In vitro inhibitory activity for Ras farnesyl transferase, K-Ras substrate; format: biochemical
Ras farnesyl transferase [3] = biological target: T2, Ras farnesyl transferase (Rattus norvegicus, UniProt Q02293+Q04631); test: In vivo (cellular) inhibitory activity for Ras farnesyl transferase, Rat2 cell line which expresses C-Harvey-Ras protein; format: cell-based
T2 construct: endogenous in cells; host or cells: Rat2 fibroblasts transformed with H-Ras or with an H-Ras/K-Ras C-terminus fusion
Method: (§1) In the present experiment, Rat2 cell line which expresses C-Harvey-Ras protein having transforming activity and Rat2 cell line (Korean patent application No. 97-14409) which is transformed with fused protein of H-Ras substituted with polybasic lysine domain at C-terminus of K-Ras were used. The experiment was performed by the modified Declue's method (Declue. J. E. et al., Cancer Research, 1991, 51, 712). Hereinafter, the experimental method will be described in more detail.
(§2) 3×10^5 cells of transformed Rat2 fibroblast cell line were sprayed on 60 mm cell cultivation dish and cultivated for 48 hours in a cell incubator at 37° C. and after 50% or more of density was reached, it was treated with the test compounds. The compound according to the present invention dissolved in dimethylsulfoxide (DMSO) was used. 1% concentration of dimethylsulfoxide was used in both control and test groups. After 4 hours from the treatment with the compound, methionine labeled with 150 μCi of radioactive isotope [^35S] per 1 ml of medium was added and after cultivating for 20 hours, the cells were, washed with physiological saline water. The cells were lysed using 1 ml of cold cell lysis buffer solution (50 mM of Sodium HEPES buffer solution containing 5mM of magnesium chloride, 1 mM of DTT, 1% NP 40, 1 mM of EDTA, 1 mM of PMSF, 2 μM of leupeptin, 2 μM of pepstatin A and 2 μM of antipain) and the supernatant wherein the cells were lysed was obtained by high-velocity centrifugation of 12,000 g×5 minutes. The amount of radioisotope in the supernatant was measured and standardized to obtain a quantitative result in immunoprecipitation reaction and then, Y13-259, a monoclonal antibody specifically binding to Ras protein (Furth, M. E. et al., J. Virol, 1982, 43, 294) was added and reacted for 15 hours at 4° C. Protein A(combined with goat anti-murine immunoglobulin antibody)-agarose suspension was added to the solution and reacted for 1 hour at 4° C. and then, to remove the unspecific binding product, immunoprecipitates were washed with a buffer solution (50 mM Tris chloride buffer solution containing 50 mM of sodium chloride, 0.5% of sodium dioxycolate, 0.5% of NP 40 and 0.1% of SDS). The precipitates were added to a buffer solution for electrophoresis and boiled and then, electrophoresis was performed using 13.5% of SDS polyacrylamide gel. After electrophoresis, the gel was fixed and dried. Then, the gel was exposed to X-ray film, developed printed. From the result of the experiment, intensities of band of in combined with or without farnesyl of Ras protein were measured, the concentration of the test compound inhibiting 50% of farnesyl bonding was defined as […], an in vivo Ras farnesyl transferase inhibitory activity.

Ras farnesyl transferase [4] = biological target: T2, Ras farnesyl transferase; test: In vivo (cellular) inhibitory activity for Ras farnesyl transferase, Rat2 cell line transformed with fused protein of H-Ras substituted with polybasic lysine domain at C-terminus of K-Ras; format: cell-based
Method: as §1, §2

[5] = recombinant farnesyl transferase 4.5 nM, Ras substrate protein 1.5 μM, tritium-farnesylpyrophosphate 0.15 μM, 30 minutes at 37° C., read-out: H-Ras IC50
[6] = in vitro farnesyl transferase assay, K-Ras, read-out: K-Ras IC50
[7] = Rat2 cell line expressing C-Harvey-Ras, concentration inhibiting 50% of farnesyl bonding of Ras protein, read-out: H-Ras CIC50
[8] = Rat2 cell line transformed with H-Ras fused with polybasic lysine domain of K-Ras C-terminus, concentration inhibiting 50% of farnesyl bonding, read-out: K-Ras CIC50

SMILES	IC50 (Ras farnesyl transferase [1]; [5]) [nM]	IC50 (Ras farnesyl transferase [2]; [6]) [nM]	IC50 (Ras farnesyl transferase [3]; [7]) [nM]	IC50 (Ras farnesyl transferase [4]; [8]) [nM]	IC50 (Ras farnesyl transferase [1]) [nM]	IC50 (Ras farnesyl transferase [2]) [nM]	IC50 (Ras farnesyl transferase [3]) [nM]	IC50 (Ras farnesyl transferase [4]) [nM]
CSCC[C@H](NC(=O)c1cn(Cc2c[nH]cn2)cc1-c1cccc2ccccc12)C(=O)O [Compound 81, (S)-3-[N-(1-Hydroxycarbonyl-3-methylthio)propyl]carbamoyl-1-(1H-imidazol-4-yl)methyl-4-(naphthalen-1-yl)-1H-pyrrole]	680	100 to 10000	1000 to 50000	10000 to 100000	–	–	–	–
COCCN(C)C(=O)c1cn(Cc2cncn2CCc2ccccc2Cl)cc1-c1cccc2ccccc12 [Compound 23, 1-[1-(2-Chloro)phenethyl-1H-imidazol-5-yl]methyl-3-[N-(2-methoxyethyl)-N-methyl]carbamoyl-4-(naphthalen-1-yl)-1H-pyrrole]	2	2	23	10000 to 50000	–	–	–	–
O=C(c1ccn(Cc2cncn2Cc2ccc(Br)cc2)c1)c1cccc2ccccc12 [Compound 140, 1-[1-(4-Bromobenzyl)-1H-imidazol-5-yl]methyl-3-(naphthalen-1-yl)carbonyl-1H-pyrrole]	–	–	–	–	90	10000 to 50000	1000 to 10000	10000 to 50000
O=C(Nc1ccccc1)c1cn(Cc2c[nH]cn2)cc1-c1cccc2ccccc12 [Compound 82]	400	100 to 10000	1000 to 50000	10000 to 100000	–	–	–	–
O=C(NCc1ccccc1)c1cn(Cc2c[nH]cn2)cc1-c1cccc2ccccc12 [Compound 83]	260	18500	1000 to 50000	10000 to 100000	–	–	–	–
O=C(c1ccc(Cc2ccccc2)cc1)c1cn(Cc2c[nH]cn2)cc1-c1cccc2ccccc12 [Compound 68]	120	100 to 10000	1000 to 50000	10000 to 100000	–	–	–	–
CSCC[C@H](NC(=O)c1cn(CCCc2c[nH]cn2)cc1-c1cccc2ccccc12)C(=O)O [Compound 108]	260	100 to 10000	1000 to 50000	10000 to 100000	–	–	–	–
N#Cc1ccc(C(=O)c2cn(Cc3c[nH]cn3)cc2-c2cccc3ccccc23)cc1 [Compound 60]	200	100 to 10000	1000 to 50000	10000 to 100000	–	–	–	–
COCCN(C)C(=O)c1cn(Cc2cncn2Cc2cccc3ccccc23)cc1-c1cccc2ccccc12 [Compound 5]	3.7	8.5	25	10000 to 50000	–	–	–	–
O=C(c1ccc(Cl)cc1Cl)c1cn(Cc2c[nH]cn2)c(Cc2ccccc2)c1-c1cccc2ccccc12 [Compound 72]	50	100 to 10000	1000 to 50000	10000 to 100000	–	–	–	–
O=C(c1ccccc1)c1cn(Cc2c[nH]cn2)cc1-c1cccc2ccccc12 [Compound 46]	120	100 to 10000	1000 to 50000	10000 to 100000	–	–	–	–
COC(=O)[C@H](CCSC)NC(=O)c1cn(CCCc2c[nH]cn2)cc1-c1cccc2ccccc12 [Compound 107, (S)-1-[3-(1H-Imidazol-4-yl)propyl]-3-[1N-(1-methoxycarbonyl-3-methylthio)propyl]carbamoyl-4-(naphthalen-1-yl)-1H-pyrrole]	10000	100 to 10000	1000 to 50000	10000 to 100000	–	–	–	–
CN1CCN(C(=O)c2cn(Cc3cncn3CCc3ccccc3Cl)cc2-c2cccc3ccccc23)CC1 [Compound 24, 1-[1-(2-Chloro)phenethyl-1H-imidazol-5-yl]methyl-3-[4-methylpiperazin-1-yl]carbonyl-4-(naphthalen-1-yl)-1H-pyrrole]	2	3	25	10000 to 50000	–	–	–	–
CN1CCN(C(=O)c2cn(Cc3cncn3Cc3ccc4ccccc4c3)cc2-c2cccc3ccccc23)CC1 [Compound 30]	2	4	10	10000 to 20000	–	–	–	–
CN1CCN(C(=O)c2cn(Cc3cncn3Cc3ccc(F)cc3)cc2-c2cccc3ccccc23)CC1 [Compound 128, 1-[1-(4-fluorobenzyl)-1H-imidazol-5-yl]methyl-3-[4-methylpiperazin-1-yl]carbonyl-4-(naphthalen-1-yl)-1H-pyrrole]	2	10	10	5000	–	–	–	–
CC(c1ccccc1)n1cncc1Cn1cc(C(=O)N2CCOCC2)c(-c2cccc3ccccc23)c1 (stereo in doubt) [Compound 9, 1-[1-((R)-α-Methylbenzyl)-1H-imidazol-5-ylmethyl]-3-(morpholin-4-yl)carbonyl-4-(naphthalen-1-yl)-1H-pyrrole]	5	6.6	25	10000 to 50000	–	–	–	–
COCCN(C)C(=O)c1cn(Cc2c[nH]cn2)cc1-c1cccc2ccccc12 [Compound 95]	0.7	100 to 1000	10 to 100	10000 to 50000	–	–	–	–
Cn1cnc(Cn2cc(C(=O)c3ccc(Oc4ccccc4)cc3)c(-c3cccc4ccccc34)c2)c1 [Compound 79, 1-(1-Methyl-1H-imidazol-4-yl)methyl-4-(naphthalen-1-yl)-3-(4-phenoxybenzoyl)-1H-pyrrole]	5	100	100	> 50000	–	–	–	–
Cn1cncc1Cn1cc(C(=O)N2CCOCC2)c(-c2cccc3ccccc23)c1 [Compound 99, 1-(1-Methyl-1H-imidazol-5-yl)methyl-3-(morpholin-4-yl)carbonyl(naphthalen-1-yl)-1H-pyrrole]	–	–	100	> 50000	–	–	–	–
N#Cc1ccc(Cn2cncc2Cn2cc(C(=O)c3ccc(Br)cc3)c(-c3cccc4ccccc34)c2)cc1 [Compound 77]	4	120	100	–	–	–	–	–
COCCN(C)C(=O)c1cn(Cc2cncn2Cc2ccc(C#N)cc2)cc1-c1cccc2ccccc12 [Compound 110, 1-[1-(4-Cyanobenzyl)-1H-imidazol-5-yl]methyl-3-[N-(2-methoxyethyl)-N-methyl]carbamoyl-4-(naphthalen-1-yl)-1H-pyrrole]	0.6	1.5	8	–	–	–	–	–
N#Cc1ccc(Cn2cncc2Cn2cc(C(=O)c3ccccc3)c(-c3cccc4ccccc34)c2)cc1 [Compound 75]	5	160	200	–	–	–	–	–
COCCN(C)C(=O)c1nc(Cc2cncn2Cc2ccc(Cl)cc2)sc1-c1cccc2ccccc12 [Compound 147, 2-[1-(4-Chlorobenzyl)-1H-imidazol-5-ylmethyl]-4-[N-(2-methoxy)ethyl-N-methylcarbamoyl]-5-(naphthalen-1-yl)thiazole]	2	30	50	–	–	–	–	–
